Measurements reported in patent US5719145A, “Amidine derivatives and platelet aggregation inhibitor containing the same” (Mitsui Toatsu Chemicals, Inc., priority 1996, dated 1998).
Structures can show the parent of a compound that is named as a salt.

How the values were obtained:
[1] = tested on: guinea pig platelets (platelet-rich plasma); experiment: Inhibition against platelet aggregation ability after oral administration in guinea pig; format: in vivo; details: Cavia porcellus, 1 h, oral administration: 37 μmol/kg, blood collected after an hour, ADP 5 μM, read-out: Aggregation inhibiting rate (%)
Experimental: Experiment for inhibition against platelet aggregation ability after oral administration The specimen drug was dissolved or suspended at a concentration of 18.5 μmol/ml in a physiological saline containing 0.5% of Tween 80. […] A physiological saline containing 0.5% of Tween 80 was similarly administered as a control. […] The blood mixture was centrifuged at 800 r.p.m. for 20 minutes at room temperature to obtain PRP in the upper layer. The lower layer was further centrifuged at 3000 r.p.m. for 15 minutes to obtain PPP in upper layer. […] Platelet aggregation ability was measured according to the method for measuring in vitro platelet aggregation. […] HEMA TRACER 1 (manufactured by NKK Co.). After incubation of PRP at 37° C. for 2 minutes, a physiological saline (30 μl) was added. […] An inhibiting ratio was obtained by comparing the maximum aggregation of the specimen drug group with that of control.

[2] = tested on: guinea pig platelets (platelet-rich plasma); experiment: In vitro inhibition of platelet aggregation in guinea pig (ADP-induced, PRP); format: cell-based; details: Cavia porcellus, ADP final concentration 5 μM, read-out: Platelet aggregation inhibitory activity in guinea pig, IC50
Experimental: In vitro experiment of platelet aggregation inhibition
1. Inhibition of platelet aggregation in Guinea pig
Blood of male guinea pig was collected with an injection syringe which contains 3.8 % sodium citrate as an anticoagulant in a ratio of 1 volume to 9 volumes of the blood. Successively, the collected blood mixture was subjected to centrifugation at 120×g for 15 minutes at room temperature to obtain platelet-rich plasma (PRP). An aliquot of PRP was further subjected to centrifugation at 1,200×g for 15 minutes to obtain platelet-poor plasma (PPP). Numbers of the platelet in PRP were measured with an automatic platelet counter: Sysmex PL-100 (manufactured by Toa Iyodenshi Co.) and PRP was diluted with PPP so as to adjust a platelet concentration to be about 300,000 particles/ μl. Platelet aggregation was measured by the following procedure with a 6 channel aggregometer: HEMA TRACER 1 (manufactured by NKK Co.).
After incubation of 240 μl of PRP at 37° C. for 2 minutes, 30 μl of the solvent of specimen as a control or of the specimen in various concentrations was added to PRP. Further 2 minutes later, 30 μl of adenosine diphosphate (final concentration: 5μM) was added to induce platelet aggregation. An inhibition percentage was obtained by comparing the maximum aggregation of the specimen drug group with that of control. […]

Compound | inhibition at 37 µmol/kg [1] [%] | IC50 [2] [nM]
CCOC(=O)CC1CCc2ccc(NC(=O)c3ccc(C(=N)N4CCCC4)cc3)cc2C1 (centres unmarked) [Example 21, ethyl 7-[[4-(pyrrolidinoiminomethyl)benzoyl]amino]-1,2,3,4-tetrahydronaphthalene-2-acetate hydrochloride] | > 90 | 94
CCOC(=O)CC1COc2ccc(NC(=O)c3ccc(C(=N)NCc4ccco4)cc3)cc2C1 (centres unmarked) [Example 31, ethyl 6-[[4-[N^2-(2-furfuryl)amidino]benzoyl]amino]chroman-3-acetate hydrochloride] | > 90 | 140
CCOC(=O)CN1CCc2ccc(NC(=O)c3ccc(C(=N)N)cc3)cc2C1 [Reference example 5, ethyl 7-[(4-amidinobenzoyl)amino]-1,2,3,4-tetrahydroisoquinoline-2-acetate dihydrochloride, reference compound] | 10 | 
CCOC(=O)CC1CCc2ccc(NC(=O)c3ccc(C(=N)N4CCSCC4)cc3)cc2C1 (centres unmarked) [Example 12, ethyl 7-[[4-(thiomorpholinoiminomethyl)benzoyl]amino]-1,2,3,4-tetrahydronaphthalene-2-acetate hydrochloride] | > 90 | 
C#CCNC(=N)c1ccc(C(=O)Nc2ccc3c(c2)CC(CC(=O)OCC)CC3)cc1 (single isomer, unassigned) [Example 45, ethyl (-)-7-[[4-(N^2-propargylamidino)benzoyl]amino]-1,2,3,4-tetrahydronaphthalene-2-acetate hydrochloride] | > 90 | 
N=C(N)c1ccc(C(=O)Nc2ccc3c(c2)CN(CC(=O)O)CC3)cc1 [Ref. Example 6, 7-[(4-amidinobenzoyl)amino]-1,2,3,4-tetrahydroisoquinoline-2-acetic acid dihydrochloride, reference compound] |  | 6600
CCOC(=O)CC1COc2ccc(NC(=O)c3ccc(C(=N)N4CCOCC4)cc3)cc2C1 (single isomer, unassigned) [Example 51, hydrochloride] | > 90 | 
N=C(N)c1ccc(C(=O)Nc2ccc3c(c2)CC(CC(=O)O)CC3)cc1 (centres unmarked) [Ref. Example 2, 7-[(4-amidinobenzoyl)amino]-1,2,3,4-tetrahydronaphthalene-2-acetic acid hydrochloride, reference compound] |  | 370
C#CCNC(=N)c1ccc(C(=O)Nc2ccc3c(c2)CC(CC(=O)OCC)CO3)cc1 (centres unmarked) [Example 26, ethyl 6-[[4-(N^2-propargylamidino)benzoyl]amino]chroman-3-acetate hydrochloride] | > 90 | 190
CCOC(=O)CC1CCc2ccc(NC(=O)c3ccc(C(=N)NCCc4ccncc4)cc3)cc2C1 (centres unmarked) [Example 42, ethyl 7-[[4-[N^2-[2-(4-pyridyl)ethyl]amidino]benzoyl]amino]-1,2,3,4-tetrahydronaphthalene-2-acetate dihydrochloride] |  | 130
CCOC(=O)CC1CCc2ccc(NC(=O)c3ccc(C(=N)NCc4ccncc4)cc3)cc2C1 (centres unmarked) [Example 41, ethyl 7-[[4-[N^2-(4-picolyl)amidino]benzoyl]amino]-1,2,3,4-tetrahydronaphthalene-2-acetatedihydrochloride] |  | 120
CCOC(=O)CC1COc2cc(NC(=O)c3ccc(C(=N)N)cc3)ccc2C1 (centres unmarked) [Reference Example 7, ethyl 7-[(4-amidinobenzoyl)amino]chroman-3-acetate hydrochloride, reference compound] | 24 | 
CCOC(=O)CC1CCc2ccc(NC(=O)c3ccc(C(=N)NCc4ccco4)cc3)cc2C1 (centres unmarked) [Example 29, ethyl 7-[[4-[N^2-(2-furfuryl)amidino]benzoyl]amino]-1,2,3,4-tetrahydronaphthalene-2-acetate hydrochloride] | > 90 | 
CCOC(=O)CC1CCc2ccc(NC(=O)c3ccc(C(=N)N4CCN(c5ccccc5)CC4)cc3)cc2C1 (centres unmarked) [Example 43, dihydrochloride] |  | 140
CCCCOC(=O)N=C(N)c1ccc(C(=O)Nc2ccc3c(c2)CC(CC(=O)OCC)CC3)cc1 (centres unmarked) [Reference Example 10, ethyl 7-[[4-[N^1-(n-butoxycarbonyl)amidino]benzoyl]amino]-1,2,3,4-tetrahydronaphthalene-2-acetate, reference compound] | 59 | 
CCOC(=O)CC1CCc2ccc(NC(=O)c3ccc(C(=N)N4CCCCCC4)cc3)cc2C1 (centres unmarked) [Example 22, ethyl 7-[[4-(homopiperidinoiminomethyl)benzoyl]amino]-1,2,3,4-tetrahydronaphthalene-2-acetate hydrochloride] | > 90 | 250
CCOC(=O)CC1CCc2ccc(NC(=O)c3ccc(C(=N)N4CCN(c5ccccn5)CC4)cc3)cc2C1 (centres unmarked) [Example 44, trihydrochloride] |  | 88
CCOC(=O)CC1CCc2ccc(NC(=O)c3ccc(C(=N)N4CCN(C)CC4)cc3)cc2C1 (centres unmarked) [Example 14, ethyl 7-[[4-(4-methylpiperazinoiminomethyl)benzoyl]amino]-1,2,3,4-tetrahydronaphthalene-2-acetate dihydrochloride] | > 90 | 66
CCOC(=O)CC1CCc2ccc(NC(=O)c3ccc(C(=N)NCc4cccnc4)cc3)cc2C1 (centres unmarked) [Example 40, ethyl 7-[[4-[N^2-(3-picolyl)amidino]benzoyl]amino]-1,2,3,4-tetrahydronaphthalene-2-acetatedihydrochloride] | > 90 | 110
CCOC(=O)CC1CCc2ccc(NC(=O)c3ccc(C(=N)N4CCCCC4)cc3)cc2C1 (centres unmarked) [Example 17, ethyl 7-[[4-(piperidinoiminomethyl)benzoyl]amino]-1,2,3,4-tetrahydronaphthalene-2-acetate hydrochloride] | > 90 | 270
CCOC(=O)CC1CCc2ccc(NC(=O)c3ccc(C(=N)N)cc3)cc2C1 (centres unmarked) [Reference Example 1, ethyl 7-[(4-amidinobenzoyl)amino]-1,2,3,4-tetrahydronaphthalene-2-acetate hydrochloride, reference compound] | 41 | 
N=C(NCc1ccccn1)c1ccc(C(=O)Nc2ccc3c(c2)CC(CC(=O)O)CC3)cc1 (centres unmarked) [Example 39, 7-[[4-[N^2-(2-picolyl)amidino]benzoyl]amino]-1,2,3,4-tetrahydronaphthalene-2-acetic acid dihydrochloride] |  | 140
CCOC(=O)CC1COc2ccc(NC(=O)c3ccc(C(=N)N4CCOCC4)cc3)cc2C1 (centres unmarked) [Example 4, ethyl 6-[[4-(morpholinoiminomethyl)benzoyl]amino]chroman-3-acetate hydrochloride] | > 90 | 120
C#CCNC(=N)c1ccc(C(=O)Nc2ccc3c(c2)CC(CC(=O)OCC)CO3)cc1 (single isomer, unassigned) [Example 49, ethyl (-)-6-[[4-(N^2-propargylamidino)benzoyl]amino]chroman-3-acetate hydrochloride] | > 90 | 
CCOC(=O)CC1COc2cc(NC(=O)c3ccc(C(=N)N4CCOCC4)cc3)ccc2C1 (centres unmarked) [Example 8, ethyl 7-[[4-(morpholinoiminomethyl)benzoyl]amino]chroman-3-acetate hydrochloride] | > 90 | 
CCOC(=O)CC1CCc2ccc(NC(=O)c3ccc(C(=N)NCc4ccccn4)cc3)cc2C1 (centres unmarked) [Example 38, ethyl 7-[[4-[N^2-(2-picolyl)amidino]benzoyl]amino]-1,2,3,4-tetrahydronaphthalene-2-acetatedihydrochloride] | > 90 | 
C#CCN(C)C(=N)c1ccc(C(=O)Nc2ccc3c(c2)CC(CC(=O)OCC)CC3)cc1 (centres unmarked) [Example 34, ethyl 7-[[4-(N^1-methyl-N^2-propargylamidino)benzoyl]amino]-1,2,3,4-tetrahydronaphthalene-2-acetate hydrochloride] | > 90 | 
CCOC(=O)CC1CCc2ccc(NC(=O)c3ccc(C(=N)N4CCOCC4)cc3)cc2C1 (single isomer, unassigned) [Example 47, ethyl (-)-7-[[4-(morpholinoiminomethyl)benzoyl]amino]-1,2,3,4-tetrahydronaphthalene-2-acetate hydrochloride] | > 90 | 
CCOC(=O)CC1COc2ccc(NC(=O)c3ccc(C(=N)N)cc3)cc2C1 (centres unmarked) [Reference Example 3, ethyl 6-[(4-amidinobenzoyl)amino]chroman-3-acetate hydrochloride, reference compound] | 39 | 
C#CCN=C(N)c1ccc(C(=O)Nc2ccc3c(c2)CC(CC(=O)OCC)CC3)cc1 (centres unmarked) [Example 24, ethyl 7-[[4-(N^2-propargylamidino)benzoyl]amino]-1,2,3,4-tetrahydronaphthalene-2-acetate] | > 90 | 
